Measurements: patent US20260216294A1, “BETA 2-ADRENERGIC RECEPTOR AGONISTS FOR TREATMENT OR PREVENTION OF MUSCLE WASTING” (ATROGI AB, priority 2023, published 2026)

Legend:
L6-myotubes [1] = test: Measurement of intracellular cAMP levels in differentiated L6-myotubes (Biological Example 3); assay type: cell-based; settings: for Emax at 10 µM: 0.25 h
In short: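 Serum-starved differentiated L6 myotubes stimulated 15 min with test compound at 1×10^−5 M final (isoprenaline as reference) in HBSS with 1% BSA, 5 mM HEPES, 1 mM IBMX, pH 7.4. Cells EtOH-extracted, lysed, and intracellular cAMP measured by AlphaScreen.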

L6-myotubes [2] = test: Glucose uptake in differentiated L6-myotubes (Biological Example 2); assay type: cell-based; settings: read-out: Biological example 2 (GU)
In short: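 Differentiated L6 myotubes were serum-starved overnight in 0.5% fatty-acid-free BSA and then stimulated with compound or isoprenaline at 1×10^−5 M final. After 1 h 40 min cells were washed and re-dosed in glucose-free medium. Twenty minutes later, uptake of 50 nM ^3H-2-deoxyglucose over 10 min was measured by scintillation counting of NaOH lysates.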

[3] = intracellular cAMP in differentiated L6-myotubes, compound at 10 μM, activity relative to isoproterenol at 10 μM
[4] = glucose uptake in differentiated L6-myotubes, compound at 10 μM, activity relative to isoproterenol at 10 μM
[5] = intracellular cAMP, compound at 10 μM relative to isoproterenol at 10 μM
[6] = glucose uptake, compound at 10 μM relative to isoproterenol at 10 μM

Row | SMILES | Emax at 10 µM (L6-myotubes [1]; [3]) | Emax at 10 µM (L6-myotubes [2]; [4]) | Emax at 10 µM (L6-myotubes [1]; [5]) | Emax at 10 µM (L6-myotubes [2]; [6]) | Biological example 3 (CAMP) (L6-myotubes [1]; [3])
1 | CC(C)(C[C@H]1CC[C@H](S(N)(=O)=O)CC1)NC[C@H](O)c1cncc(F)c1 [Compound 518, (1R,4r)-4-{2-[(R)-2-(5-fluoro-3-pyridyl)-2-hydroxyethylamino]-2-methylpropyl} cyclohexanesulfonamide] | < 25% | 50 to 75% | – | – | –
2 | CC(=O)N(Cc1ccccc1)[C@H]1CC[C@H](C[C@@H]2CC[C@H]([C@H](O)c3cccc(F)c3)N2)CC1 [Compound 482, N-[(1S,4r)-4-({(2S,5R)-5-[(R)-(m-fluorophenyl) hydroxymethyl]-2-pyrrolidinyl}methyl)cyclohexyl]-N-benzylacetamide] | < 25% | < 25% | – | – | –
3 | COC(=O)[C@H]1CC[C@@H](CC(C)(C)NC[C@H](O)c2cncc(F)c2)CC1 [Compound 322, methyl (1S,4s)-4-{2-[(R)-2-(5-fluoro-3-pyridyl)-2-hydroxyethylamino]-2-methylpropyl} cyclohexanecarboxylate] | < 25% | > 75% | – | – | –
4 | CCC[C@@H]1CC[C@H]([C@@H](O)c2cccc(F)c2)N1 [Compound 126] | – | – | < 25% | 25 to 50% | –
5 | O[C@@H](CNCC[C@H]1CC[C@H](O)CC1)c1cccc(F)c1 [Compound 298, (R)-1-(m-fluorophenyl)-2-{2-[(1r,4R)-4-hydroxycyclohexyl]ethylamino}-1-ethanol] | < 25% | 25 to 50% | – | – | –
6 | O[C@@H](CNC[C@H]1CC[C@@H](O)CC1)c1cccc(F)c1 [Compound 268, (R)-1-(m-fluorophenyl)-2-({[(1s,4S)-4-hydroxycyclohexyl]methyl}amino)-1-ethanol] | < 25% | 25 to 50% | – | – | –
7 | CC(=O)N[C@H]1CC[C@@H](C[C@@H]2CC[C@H]([C@@H](O)c3cccc(F)c3)N2)CC1 [Compound 483] | < 25% | < 25% | – | – | –
8 | CS(=O)(=O)N(Cc1ccccc1)CC12CCC([C@@H](O)c3cccc(F)c3)(CC1)N2 [Compound 538, (S)-(4-{[(benzyl)-N-mesylamino]methyl}-7-azabicyclo[[2.2.1]]hept-1-yl)(m-fluorophenyl)methanol] | < 25% | 50 to 75% | – | – | –
9 | CCOC(=O)CO[C@H]1CC[C@@H](C(C)(C)NC[C@H](O)c2cccc(F)c2)CC1 [Compound 407, ethyl[[(1S,4s)-4-{1-[(R)-2-(m-fluorophenyl)-2-hydroxyethylamino]-1-methylethyl}cyclohexyloxy]]acetate] | < 25% | 50 to 75% | – | – | –
10 | CS(=O)(=O)N[C@H]1CC[C@@H](CNC[C@H](O)c2cccc(F)c2)CC1 [Compound 312, (R)-1-(m-fluorophenyl)-2-({[(1s,4S)-4-(mesylamino)cyclohexyl]methyl}amino)-1-ethanol] | < 25% | 50 to 75% | – | – | –
11 | CC(C)(C)NC[C@H](O)c1ccc(F)cn1 [Compound 96, (S)-2-(tert-butylamino)-1-(5-fluoro-2-pyridyl)-1-ethanol] | – | – | < 25% | 50 to 75% | –
12 | CCCC(C)NCC(O)c1ccc(O)c(Cl)c1 (stereo not shown) [Compound 19, 1-(3-chloro-4-hydroxyphenyl)-2-(1-methylbutylamino)-1-ethanol] | – | – | < 25% | 25 to 50% | –
13 | CO[C@H]1CC[C@@H](CC(C)(C)NC[C@H](O)c2cncc(F)c2)CC1 [Compound 248, (R)-2-{1,1-dimethyl-2-[(1s,4S)-4-methoxycyclohexyl]ethylamino}-1-(5-fluoro-3-pyridyl)-1-ethanol] | < 25% | > 75% | – | – | –
14 | CC(=O)N[C@H]1CC[C@H](C(C)(C)NC[C@H](O)c2cccc(F)c2)CC1 [Compound 386, N-[(1R,4r)-4-{1-[(R)-2-(m-fluorophenyl)-2-hydroxyethylamino]-1-methylethyl}cyclohexyl] acetamide] | < 25% | > 75% | – | – | –
15 | CC(=O)N(Cc1ccccc1)[C@H]1CC[C@H](C[C@@H]2CC[C@H]([C@@H](O)c3cccc(F)c3)N2)CC1 [Compound 481, N-[(1S,4r)-4-({(2S,5R)-5-[(S)-(m-fluorophenyl) hydroxymethyl]-2-pyrrolidinyl}methyl)cyclohexyl]-N-benzylacetamide] | < 25% | < 25% | – | – | –
16 | CS(=O)(=O)N(Cc1ccccc1)[C@H]1CC[C@H](C[C@@H]2CC[C@H]([C@@H](O)c3cccc(F)c3)N2)CC1 [Compound 503, (S)-[(2R,5S)-5-({(1r,4S)-4-[(benzyl)-N-mesylamino]cyclohexyl}methyl)-2-pyrrolidinyl](m-fluorophenyl)methanol] | < 25% | < 25% | – | – | –
17 | CCCCNCC(O)c1cc(F)c(N)c(F)c1 (stereo not shown) [Compound 37, 1-(4-amino-3,5-difluorophenyl)-2-(butylamino)-1-ethanol] | – | – | > 75% | > 75% | –
18 | O[C@@H](c1cccc(F)c1)C12CCC(CCc3ccc(Cl)cc3)(CC1)N2 [Compound 527, (S)-{4-[2-(p-chlorophenyl)ethyl]-7-azabicyclo[[2.2.1]]hept-1-yl}(m-fluorophenyl)methanol] | < 25% | < 25% | – | – | –

Row | SMILES | Emax at 10 µM (L6-myotubes [1]; [3]) | Emax at 10 µM (L6-myotubes [2]; [4]) | Emax at 10 µM (L6-myotubes [1]; [5]) | Emax at 10 µM (L6-myotubes [2]; [6]) | Biological example 3 (CAMP) (L6-myotubes [1]; [3])
19 | O[C@@H](CNCCC[C@H]1CC[C@H](O)CC1)c1cccc(F)c1 [Compound 303, (R)-1-(m-fluorophenyl)-2-{3-[(1r,4S)-4-hydroxycyclohexyl]propylamino}-1-ethanol] | < 25% | 50 to 75% | – | – | –
20 | CC1(C)CC[C@H]([C@H](O)c2cncc(F)c2)N1 [Compound 157, (R)-[(R)-5,5-dimethyl-2-pyrrolidinyl](5-fluoro-3-pyridyl)methanol] | – | – | < 25% | > 75% | –
21 | CS(=O)(=O)N[C@H]1CC[C@@H](C[C@@H]2CC[C@H]([C@@H](O)c3cccc(F)c3)N2)CC1 [Compound 511] | < 25% | 25 to 50% | – | – | –
22 | O[C@@H](c1cncc(F)c1)C12CCC(CCCc3ccccc3)(CC1)N2 [Compound 531, (S)-(5-fluoro-3-pyridyl){4-(3-phenylpropyl)-7-azabicyclo[[2.2.1]]hept-1-yl}methanol] | < 25% | 50 to 75% | – | – | –
23 | CC1(C)C[C@H]([C@@H](O)c2cccc(Cl)c2)N1 [Compound 233, (S)-[(R)-4,4-dimethyl-2-azetidinyl](m-chlorophenyl)methanol] | < 25% | < 25% | – | – | –
24 | CCC[C@@H]1CCC[C@H]([C@H](O)c2cccc(F)c2)N1 [Compound 59, (R)-[(2R,6R)-6-propyl-2-piperidyl](m-fluorophenyl)methanol] | – | – | < 25% | 25 to 50% | –
25 | CO[C@H]1CC[C@H](C[C@H]2CC[C@H]([C@H](O)c3cccc(F)c3)N2)CC1 [Compound 335] | < 25% | > 75% | – | – | –
26 | CCC[C@@H]1CCC[C@H]([C@@H](O)c2cccc(F)c2)N1 [Compound 60] | – | – | < 25% | 25 to 50% | –
27 | CC1(C)CCC[C@@H]([C@H](O)c2cccc(F)c2)N1 [Compound 190] | – | – | < 25% | > 75% | –
28 | CC(C)(CC[C@H]1CC[C@@H](C(=O)O)CC1)NC[C@H](O)c1cccc(F)c1 [Compound 352, (1S,4s)-4-{3-[(R)-2-(m-fluorophenyl)-2-hydroxyethylamino]-3-methylbutyl} cyclohexanecarboxylic acid] | < 25% | 25 to 50% | – | – | –
29 | CC(C)(C)NC[C@H](O)c1ccc(O)cn1 [Compound 95, 6-[(S)-2-(tert-butylamino)-1-hydroxyethyl]-3-pyridinol] | – | – | < 25% | 50 to 75% | –
30 | O[C@@H](c1cccc(F)c1)C12CCC(CCc3cccnc3)(CC1)N2 [Compound 445, (S)-(m-fluorophenyl){4-[2-(3-pyridyl)ethyl]-7-azabicyclo[[2.2.1]]hept-1-yl}methanol] | – | > 75% | – | – | − (if it less than 25% it is denoted with −)
31 | COC(=O)[C@H]1CC[C@H](C(C)(C)NC[C@H](O)c2cccc(F)c2)CC1 [Compound 367, (1R,4r)-8-[(R)-2-(m-fluorophenyl)-2-hydroxyethylamino]-7-methoxy-p-menthan-7-one] | 25 to 50% | > 75% | – | – | –
32 | O[C@@H](c1cncc(F)c1)C12CCC(COCc3ccc(F)cc3)(CC1)N2 [Compound 442, (S)-(4-{[(p-fluorophenyl)methoxy]methyl}-7-azabicyclo[[2.2.1]]hept-1-yl)(5-fluoro-3-pyridyl)methanol] | < 25% | 25 to 50% | – | – | –
33 | O[C@@H](CNCC[C@H]1CC[C@@H](OCc2ccccc2)CC1)c1cncc(F)c1 [Compound 291, (R)-1-(5-fluoro-3-pyridyl)-2-{2-[(1s,4S)-4-(benzyloxy)cyclohexyl]ethylamino}-1-ethanol] | < 25% | 50 to 75% | – | – | –
34 | O[C@H](c1cncc(F)c1)[C@H]1CC[C@@H](Cc2ccc(Cl)cc2)N1 [Compound 404, (R)-{(2R,5S)-5-[(p-chlorophenyl)methyl]-2-pyrrolidinyl}(5-fluoro-3-pyridyl)methanol] | < 25% | > 75% | – | – | –
35 | CC(C)(C[C@H]1CC[C@H](NS(C)(=O)=O)CC1)NC[C@@H](O)c1cccc(C#N)n1 [Compound 428, 6-[(R)-2-{1,1-dimethyl-2-[(1r,4R)-4-(mesylamino)cyclohexyl]ethylamino}-1-hydroxyethyl]-2-pyridinecarbonitrile] | < 25% | < 25% | – | – | –
